According to patent publication US20240018140A1, “MODIFIED IMIDAZOPYRIDINES AS GLUCOSYLCERAMIDE SYNTHASE INHIBITORS” (Merck Sharp & Dohme LLC, priority 2020, published 2024):

target: glucosylceramide synthase (GCS) (Homo sapiens (Human), UniProt Q16739); assay: UDP-Glo glucosylceramide synthase biochemical assay; settings: endogenous GCS in Golgi preparations from human A375 malignant melanoma skin cells; C6 ceramide and UDP-glucose substrates; 20 h incubation; UDP detected by luminescence
From the text: UDP-Glo™ Glucosylceramide Synthase Biochemical Assay
A UDP-Glo™ glucosylceramide synthase biochemical assay was utilized to evaluate the effect of test compounds on the activity of endogenous levels of GCS enzyme contained within Golgi preparations isolated from human A375 malignant melanoma skin cells. The UDP-Glo™ glucosylceramide synthase assay uses UDP-Glucose as a nucleotide-glycosyl donor and ceramide as substrate acceptor molecules. In the reaction, glucosylceramide synthase (GCS) transfers glucose from UDP-Glucose to ceramide. Glucosylceramide and UDP are released as products.
Using Promega's UDP-Glo™ Glycosyltransferase assay kit (Promega Corporation, Madison, WI, USA (Promega)), GCS activity was indirectly measured by detecting the amount of UDP produced. An aliquot of GCS enzyme (1.5 μg crude golgi preparation, total protein) and titrated test compound were aliquoted to each well and incubated for 30 minutes at room temperature. […] An equivalent volume of substrate mixture was then added to each well. Following a 20 h incubation at room temperature to allow for GCS turnover of substrate, an equal volume of UDP detection reagent (Promega) was added to each well and incubated for an additional 75 minutes at room temperature to simultaneously convert the accumulated UDP product into ATP and generate light in a luciferase reaction. The generated light was detected using a luminometer. […] luminescence values (RLUs) were normalized to mean “min” and “max” effects, as determined on each plate. “Min” was defined as the mean of the values of the wells treated with vehicle (DMSO) and which represent 0% inhibition; “max” was defined as the mean of the values of the wells treated with a reference inhibitor and which represent the 100% effect. Values for % Emax and EC50 were determined by best-fitting the normalized data to a curve in Activity Base along a four-parameter logistic nonlinear regression (4PL) model (based on the Levenberg-Marquardt algorithm and defined by the equation below): […]
where: n is 4PMin (bottom of the curve); m is 4PMax (top of the curve); i is IP (inflection point of curve); and p is slope. See Levenberg, K., “A Method for the Solution of Certain Problems in Least Squares”, Quart. Appl. Math. 2, (1944), pp 164-168 and Marquardt, D., “An Algorithm for Least Squares Estimation on Nonlinear Parameters”, SIAM J. Appl. Math. 11, (1963) pp 431-441.

glucosylceramide synthase (GCS), sequence (Q16739 whole entry): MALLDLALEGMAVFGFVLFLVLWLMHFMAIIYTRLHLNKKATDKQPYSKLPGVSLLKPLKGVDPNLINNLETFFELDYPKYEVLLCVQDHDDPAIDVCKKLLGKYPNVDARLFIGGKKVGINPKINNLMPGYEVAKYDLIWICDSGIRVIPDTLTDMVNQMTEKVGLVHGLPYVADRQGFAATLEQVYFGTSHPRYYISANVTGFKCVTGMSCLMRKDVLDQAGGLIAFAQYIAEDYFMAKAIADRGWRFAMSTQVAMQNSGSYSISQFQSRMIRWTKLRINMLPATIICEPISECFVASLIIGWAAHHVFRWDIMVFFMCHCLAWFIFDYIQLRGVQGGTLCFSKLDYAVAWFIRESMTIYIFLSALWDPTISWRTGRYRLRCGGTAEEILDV

Row | Compound | EC50 [nM]
1 | O=C(N[C@H]1CC[C@H](O)C[C@H]1F)c1cn2cc(Cl)cc(-c3ccccc3OCC(F)(F)F)c2n1 (mixture of isomers) [Compound 22, 6-chloro-N-((1S,2R,4S and 1R, 2S,4R)-2-fluoro-4-hydroxycyclohexyl)-8-(2-(2,2,2-trifluoroethoxy)phenyl)imidazo[1,2-a]pyridine-2-carboxamide] | 0.72
2 | CC1(NC(=O)c2cn3cc(Cl)cc(-c4ccccc4OCC(F)(F)F)c3n2)CCOC1 (racemic) [Compound 14, (R and S)-6-chloro-N-(3-methyltetrahydrofuran-3-yl)-8-(2-(2,2,2-trifluoroethoxy)phenyl)imidazo[1,2-a]pyridine-2-carboxamide] | 0.97
3 | O=C(NC1CNCCC1(F)F)c1cn2cccc(-c3ccccc3OCC(F)(F)F)c2n1 (racemic) [Compound 17, (R and S)-N-(4,4-difluoropiperidin-3-yl)-8-(2-(2,2,2-trifluoroethoxy)phenyl)imidazo[1,2-a]pyridine-2-carboxamide] | 1.2
4 | CC1(NC(=O)c2cn3cc(Cl)cc(-c4ccccc4OCC(F)(F)F)c3n2)CCCOC1 (racemic) [Compound 35, (R and S)-6-chloro-N-(3-methyltetrahydro-2H-pyran-3-yl)-8-(2-(2,2,2-trifluoroethoxy)phenyl)imidazo[1,2-a]pyridine-2-carboxamide] | 3.3
5 | O=C(NC(c1cccnc1)C(F)(F)F)c1cn2cccc(-c3ccccc3OCC(F)(F)F)c2n1 (racemic) [Compound 38, (R and S)-N-(2,2,2-trifluoro-1-(pyridin-3-yl)ethyl)-8-(2-(2,2,2-trifluoroethoxy)phenyl)imidazo[1,2-a]pyridine-2-carboxamide] | 5.5
6 | O=C(c1cn2cccc(-c3ccccc3OCC(F)(F)F)c2n1)N1CCOC2(CCOC2)C1 (racemic) [Compound 50, (R and S)-(2,6-dioxa-9-azaspiro[4.5]decan-9-yl)(8-(2-(2,2,2-trifluoroethoxy)phenyl)imidazo[1,2-a]pyridin-2-yl)methanone] | 21
7 | O=C(N[C@@H]1CNCC[C@H]1F)c1cn2cccc(-c3ccccc3OCC(F)(F)F)c2n1 (relative stereo) [Compound 16, N-(trans-4-fluoropiperidin-3-yl)-8-(2-(2,2,2-trifluoroethoxy)phenyl)imidazo[1,2-a]pyridine-2-carboxamide] | 0.83
8 | O=C(N[C@H]1CC[C@H](O)C1)c1cn2cccc(-c3ccccc3OCC(F)(F)F)c2n1 (relative stereo) [Compound 19, N-(trans-3-hydroxycyclopentyl)-8-(2-(2,2,2-trifluoroethoxy)phenyl)imidazo[1,2-a]pyridine-2-carboxamide] | 23
9 | O=C(N[C@@H]1CCC[C@H](CO)C1)c1cn2cccc(-c3ccccc3OCC(F)(F)F)c2n1 (relative stereo) [Compound 31, N-(cis-3-(hydroxymethyl)cyclohexyl)-8-(2-(2,2,2-trifluoroethoxy)phenyl)imidazo[1,2-a]pyridine-2-carboxamide] | 0.23
10 | O=C(NC1CCCOC1)c1cn2cccc(-c3ccccc3OCC(F)(F)F)c2n1 (single isomer, unassigned) [Compound 2, (R or S)-N-(tetrahydro-2H-pyran-3-yl)-8-(2-(2,2,2-trifluoroethoxy)phenyl)imidazo[1,2-a]pyridine-2-carboxamide] | 6.1
11 | CC(CO)(NC(=O)c1cn2cccc(-c3ccccc3OCC(F)(F)F)c2n1)C(F)(F)F (single isomer, unassigned) [Compound 9, (R or S)-N-(1,1,1-trifluoro-3-hydroxy-2-methylpropan-2-yl)-8-(2-(2,2,2-trifluoroethoxy)phenyl)imidazo[1,2-a]pyridine-2-carboxamide] | 2.3
12 | CC(CO)(NC(=O)c1cn2cccc(-c3ccccc3OCC(F)(F)F)c2n1)C(F)(F)F (single isomer, unassigned) [Compound 10, (R or S)-N-(1,1,1-trifluoro-3-hydroxy-2-methylpropan-2-yl)-8-(2-(2,2,2-trifluoroethoxy)phenyl)imidazo[1,2-a]pyridine-2-carboxamide] | 7.2
13 | CC(O)c1cn2cc(C(F)(F)F)cc(-c3ccccc3OCC(F)(F)F)c2n1 (single isomer, unassigned) [Compound 63, (R or S) 1-(8-(2-(2,2,2-trifluoroethoxy)phenyl)-6-(trifluoromethyl)imidazo[1,2-a]pyridin-2-yl)ethan-1-ol] | 5.7
14 | CC(C)(CO)NC(=O)c1cn2cccc(-c3ccccc3OCC(F)(F)F)c2n1 [Compound 1, N-(1-hydroxy-2-methylpropan-2-yl)-8-(2-(2,2,2-trifluoroethoxy)phenyl)imidazo[1,2-a]pyridine-2-carboxamide] | 9.8
15 | CC(C)(NC(=O)c1cn2cccc(-c3ccccc3OCC(F)(F)F)c2n1)C(F)(F)F [Compound 3, N-(1,1,1-trifluoro-2-methylpropan-2-yl)-8-(2-(2,2,2-trifluoroethoxy)phenyl)imidazo[1,2-a]pyridine-2-carboxamide] | 3.1
16 | C[C@@H](NC(=O)c1cn2cccc(-c3ccccc3OCC(F)(F)F)c2n1)C(F)(F)F [Compound 4, (R)-8-(2-(2,2,2-trifluoroethoxy)phenyl)-N-(1,1,1-trifluoropropan-2-yl)imidazo[1,2-a]pyridine-2-carboxamide] | 26
17 | O=C(N[C@H]1CCOC1)c1cn2cc(Cl)cc(-c3ccccc3OCC(F)(F)F)c2n1 [Compound 5, (S)-6-chloro-N-(tetrahydrofuran-3-yl)-8-(2-(2,2,2-trifluoroethoxy)phenyl)imidazo[1,2-a]pyridine-2-carboxamide] | 0.91
18 | CC(C)(C#N)CNC(=O)c1cn2cc(Cl)cc(-c3ccccc3OCC(F)(F)F)c2n1 [Compound 8, 6-chloro-N-(2-cyano-2-methylpropyl)-8-(2-(2,2,2-trifluoroethoxy)phenyl)imidazo[1,2-a]pyridine-2-carboxamide] | 4.5
19 | COCC(C)(C)NC(=O)c1cn2cccc(-c3ccccc3OCC(F)(F)F)c2n1 [Compound 11, N-(1-methoxy-2-methylpropan-2-yl)-8-(2-(2,2,2-trifluoroethoxy)phenyl)imidazo[1,2-a]pyridine-2-carboxamide] | 38
20 | O=C(c1cn2cccc(-c3ccccc3OCC(F)(F)F)c2n1)N1Cc2cccnc2C1 [Compound 12, (5,7-dihydro-6H-pyrrolo[3,4-b]pyridin-6-yl)(8-(2-(2,2,2-trifluoroethoxy)phenyl)imidazo[1,2-a]pyridin-2-yl)methanone] | 36
21 | CC(C)(C)NC(=O)c1cn2cc(F)cc(-c3ccccc3OCC(F)(F)F)c2n1 [Compound 13, N-(tert-butyl)-6-fluoro-8-(2-(2,2,2-trifluoroethoxy)phenyl)imidazo[1,2-a]pyridine-2-carboxamide] | 5.8
22 | O=C(Nc1cccnc1)c1cn2cc(C(F)(F)F)cc(-c3ccccc3OCC(F)(F)F)c2n1 [Compound 15, N-(pyridin-3-yl)-8-(2-(2,2,2-trifluoroethoxy)phenyl)-6-(trifluoromethyl)imidazo[1,2-a]pyridine-2-carboxamide] | 0.029
23 | O=C(NC12CCC(CO)(CC1)CC2)c1cn2cccc(-c3ccccc3OCC(F)(F)F)c2n1 [Compound 18, N-(4-(hydroxymethyl)bicyclo[2.2.2]octan-1-yl)-8-(2-(2,2,2-trifluoroethoxy)phenyl)imidazo[1,2-a]pyridine-2-carboxamide] | 2.3
24 | CC(C)(CO)NC(=O)c1cn2cc(Cl)cc(-c3ccccc3OCC(F)(F)F)c2n1 [Compound 20, 6-chloro-N-(1-hydroxy-2-methylpropan-2-yl)-8-(2-(2,2,2-trifluoroethoxy)phenyl)imidazo[1,2-a]pyridine-2-carboxamide] | 0.86
25 | O=C(NC1(CO)CCCC1)c1cn2cccc(-c3ccccc3OCC(F)(F)F)c2n1 [Compound 21, N-(1-(hydroxymethyl)cyclopentyl)-8-(2-(2,2,2-trifluoroethoxy)phenyl)imidazo[1,2-a]pyridine-2-carboxamide] | 11
26 | NC(CNC(=O)c1cn2cc(Cl)cc(-c3ccccc3OCC(F)(F)F)c2n1)C(F)(F)F (stereo not drawn) [Compound 23, N-(2-amino-3,3,3-trifluoropropyl)-6-chloro-8-(2-(2,2,2-trifluoroethoxy)phenyl)imidazo[1,2-a]pyridine-2-carboxamide] | 10
27 | O=C(N[C@H]1CC[C@H](O)CC1)c1cn2cc(Cl)cc(-c3ccccc3OCC(F)(F)F)c2n1 [Compound 24, 6-chloro-N-(trans-4-hydroxycyclohexyl)-8-(2-(2,2,2-trifluoroethoxy)phenyl)imidazo[1,2-a]pyridine-2-carboxamide] | 0.36
